Earlier results, collected in PMC4691061, “Repositioning of Thiourea-Containing Drugs as Tyrosinase Inhibitors” (International Journal of Molecular Sciences, 2015).

Target: tyrosinase
Details: tyrosinase; read-out: IC50; cited from earlier work

## CCc1cc(C(N)=S)ccn1 [ethionamide]
  IC50: 4 µM
